ChEMBL document CHEMBL3885881, “DrugMatrix”

Tests used:
[1] = species: Rattus norvegicus; experiment: DrugMatrix - Regimen: Daily Repeat; assay type: toxicity, organism-based, Sprague-Dawley; parameters: regimen Daily Repeat, gender Male, age 6-8 weeks; conditions: in vivo, po, 1868 mg/kg, […], route oral GAVAGE, dose level High, vehicle .5 % CMC; for ALANINE AMINOTRANSFERASE / ALBUMIN / ALKALINE PHOSPHATASE / ASPARTATE AMINOTRANSFERASE / BLOOD UREA NITROGEN / CARBON DIOXIDE / CHLORIDE / CHOLESTEROL / CREATININE / GLUCOSE / LACTATE DEHYDROGENASE / LIPASE / PHOSPHORUS / POTASSIUM / SODIUM / TOTAL BILIRUBIN / TOTAL PROTEIN / URIC ACID: tissue Plasma
[2] = species: Rattus norvegicus; assay type: toxicity, organism-based, Sprague-Dawley; conditions: in vivo, po, 1868 mg/kg, 24 h, route oral GAVAGE, dose level High, time 1 day, vehicle .5 % CMC
Description: DrugMatrix - Regimen: Single

`CC(=O)OCc1ccccc1` [E1501] was tested, and the “PLATELET COUNT” value ([1]; tissue Blood, time 11 day) was 822 x10E3/uL, the “ABSOLUTE BASOPHIL” value ([1]; tissue Blood, time 14 day) was 0 CELLS/uL and the “ABSOLUTE EOSINOPHIL” value ([1]; tissue Blood, time 14 day) was 388 CELLS/uL. For the same compound, the “ABSOLUTE LYMPHOCYTE” value ([1]; tissue Blood, time 14 day) was 14397 CELLS/uL, the “ABSOLUTE MONOCYTE” value ([1]; tissue Blood, time 14 day) was 529.5 CELLS/uL and the “ABSOLUTE SEGMENTED NEUTROPHIL” value ([1]; tissue Blood, time 14 day) was 1785.5 CELLS/uL. For the same compound, the BASOPHIL ([1]; tissue Blood, time 14 day) was 0%, the EOSINOPHIL ([1]; tissue Blood, time 14 day) was 2% and the “ERYTHROCYTE COUNT” value ([1]; tissue Blood, time 14 day) was 6.34 x10E6/uL. For the same compound, the HEMATOCRIT ([1]; tissue Blood, time 14 day) was 38%, the HEMOGLOBIN ([1]; tissue Blood, time 14 day) was 13.85 G/DL and the “LEUKOCYTE COUNT” value ([1]; tissue Blood, time 14 day) was 17.1 x10E3/uL. For the same compound, the LYMPHOCYTE ([1]; tissue Blood, time 14 day) was 85%, the “MEAN CORPUSCULAR HEMOGLOBIN” value ([1]; tissue Blood, time 14 day) was 21.9 pg and the “MEAN CORPUSCULAR HEMOGLOBIN CONCENTRATION” value ([1]; tissue Blood, time 14 day) was 36.35 G/DL. The “MEAN CORPUSCULAR VOLUME” value ([1]; tissue Blood, time 14 day) was 60.15 fL, the MONOCYTE ([1]; tissue Blood, time 14 day) was 3.5% and the NEUTROPHIL ([1]; tissue Blood, time 14 day) was 9.5%. For the same compound, the “NUCLEATED RED BLOOD CELLS” value ([1]; tissue Blood, time 14 day) was 0 /100WBC, the “PLATELET COUNT” value ([1]; tissue Blood, time 14 day) was 722 x10E3/uL and the “ALANINE AMINOTRANSFERASE” value ([1]; time 11 day) was 128 u/L. The ALBUMIN ([1]; time 11 day) was 3.9 G/DL, the “ALKALINE PHOSPHATASE” value ([1]; time 11 day) was 284 u/L and the “ASPARTATE AMINOTRANSFERASE” value ([1]; time 11 day) was 640 u/L. For the same compound, the “BLOOD UREA NITROGEN” value ([1]; time 11 day) was 44 mg/dL, the “CARBON DIOXIDE” value ([1]; time 11 day) was 31 mmol/L and the CHLORIDE ([1]; time 11 day) was 95 MEQ/L. The CHOLESTEROL ([1]; time 11 day) was 70 mg/dL, the CREATININE ([1]; time 11 day) was 0.26 mg/dL and the GLUCOSE ([1]; time 11 day) was 191 mg/dL. For the same compound, the “LACTATE DEHYDROGENASE” value ([1]; time 11 day) was 656 u/L, the LIPASE ([1]; time 11 day) was 9 u/L and the PHOSPHORUS ([1]; time 11 day) was 14.5 mg/dL. For the same compound, the POTASSIUM ([1]; time 11 day) was 4.9 MEQ/L, the SODIUM ([1]; time 11 day) was 146.3 MEQ/L and the “TOTAL BILIRUBIN” value ([1]; time 11 day) was 0.1 mg/dL. For the same compound, the “TOTAL PROTEIN” value ([1]; time 11 day) was 5.4 G/DL, the “URIC ACID” value ([1]; time 11 day) was 1.7 mg/dL and the “ALANINE AMINOTRANSFERASE” value ([1]; time 14 day) was 76.5 u/L. For the same compound, the ALBUMIN ([1]; time 14 day) was 4.3 G/DL, the “ALKALINE PHOSPHATASE” value ([1]; time 14 day) was 267 u/L and the “ASPARTATE AMINOTRANSFERASE” value ([1]; time 14 day) was 238 u/L. The “BLOOD UREA NITROGEN” value ([1]; time 14 day) was 19 mg/dL, the “CARBON DIOXIDE” value ([1]; time 14 day) was 21.5 mmol/L and the CHLORIDE ([1]; time 14 day) was 102.5 MEQ/L. For the same compound, the CHOLESTEROL ([1]; time 14 day) was 79 mg/dL, the CREATININE ([1]; time 14 day) was 0.27 mg/dL and the GLUCOSE ([1]; time 14 day) was 207 mg/dL. For the same compound, the “LACTATE DEHYDROGENASE” value ([1]; time 14 day) was 251.5 u/L, the LIPASE ([1]; time 14 day) was 9 u/L and the PHOSPHORUS ([1]; time 14 day) was 11.95 mg/dL. For the same compound, the POTASSIUM ([1]; time 14 day) was 5.28 MEQ/L, the SODIUM ([1]; time 14 day) was 152.2 MEQ/L and the “TOTAL BILIRUBIN” value ([1]; time 14 day) was 0.25 mg/dL. The “TOTAL PROTEIN” value ([1]; time 14 day) was 6.5 G/DL, the “URIC ACID” value ([1]; time 14 day) was 1.95 mg/dL and the “ABSOLUTE EOSINOPHIL” value ([2]; tissue Blood) was 109.33 CELLS/uL. For the same compound, the “ABSOLUTE LYMPHOCYTE” value ([2]; tissue Blood) was 12916.67 CELLS/uL, the “ABSOLUTE MONOCYTE” value ([2]; tissue Blood) was 245.33 CELLS/uL and the “ABSOLUTE SEGMENTED NEUTROPHIL” value ([2]; tissue Blood) was 1062 CELLS/uL. The BASOPHIL ([2]; tissue Blood) was 0%, the EOSINOPHIL ([2]; tissue Blood) was 0.67% and the “ERYTHROCYTE COUNT” value ([2]; tissue Blood) was 5.87 x10E6/uL. For the same compound, the HEMATOCRIT ([2]; tissue Blood) was 35.33%, the HEMOGLOBIN ([2]; tissue Blood) was 12.87 G/DL and the “LEUKOCYTE COUNT” value ([2]; tissue Blood) was 14.33 x10E3/uL. The LYMPHOCYTE ([2]; tissue Blood) was 90.67%, the “MEAN CORPUSCULAR HEMOGLOBIN” value ([2]; tissue Blood) was 21.93 pg and the “MEAN CORPUSCULAR HEMOGLOBIN CONCENTRATION” value ([2]; tissue Blood) was 36.4 G/DL. For the same compound, the “MEAN CORPUSCULAR VOLUME” value ([2]; tissue Blood) was 60.27 fL, the MONOCYTE ([2]; tissue Blood) was 1.67% and the NEUTROPHIL ([2]; tissue Blood) was 7%. For the same compound, the “NUCLEATED RED BLOOD CELLS” value ([2]; tissue Blood) was 0 /100WBC, the “PLATELET COUNT” value ([2]; tissue Blood) was 831 x10E3/uL and the “ALANINE AMINOTRANSFERASE” value ([2]; tissue Plasma) was 51 u/L. The ALBUMIN ([2]; tissue Plasma) was 4.13 G/DL, the “ALKALINE PHOSPHATASE” value ([2]; tissue Plasma) was 348.67 u/L and the “ASPARTATE AMINOTRANSFERASE” value ([2]; tissue Plasma) was 87 u/L. For the same compound, the “BLOOD UREA NITROGEN” value ([2]; tissue Plasma) was 12.33 mg/dL, the “CARBON DIOXIDE” value ([2]; tissue Plasma) was 26 mmol/L and the CHLORIDE ([2]; tissue Plasma) was 101.67 MEQ/L. For the same compound, the CHOLESTEROL ([2]; tissue Plasma) was 53 mg/dL, the CREATININE ([2]; tissue Plasma) was 0.24 mg/dL and the GLUCOSE ([2]; tissue Plasma) was 189 mg/dL. For the same compound, the “LACTATE DEHYDROGENASE” value ([2]; tissue Plasma) was 338.67 u/L, the LIPASE ([2]; tissue Plasma) was 10 u/L and the PHOSPHORUS ([2]; tissue Plasma) was 14.53 mg/dL. The POTASSIUM ([2]; tissue Plasma) was 6.76 MEQ/L, the SODIUM ([2]; tissue Plasma) was 145.77 MEQ/L and the “TOTAL BILIRUBIN” value ([2]; tissue Plasma) was 0.13 mg/dL. The “TOTAL PROTEIN” value ([2]; tissue Plasma) was 6.1 G/DL and the “URIC ACID” value ([2]; tissue Plasma) was 2.13 mg/dL.
